Test results from patent publication US4605674A, “Substituted acetophenones and compositions containing them” (Hoffmann-La Roche Inc., priority 1979, dated 1986).
≈ marks a conversion by molar mass, not a printed value. Like-named read-outs stand apart in the source and are kept apart here.

What was measured:
[1] = tested on: Coxsackievirus B1; assay: In vivo antiviral activity against lethal infection with Coxsackievirus B1 in mice; set-up: species or system DDY mice; details: up to 21 days
Method: The activity of the compounds against lethal infection with Coxsackievirus B1 was tested in mice. DDY mice weighing about 15 g were infected intraperitoneally with about the tenfold LD50 dose of the virus. The infected mice were treated 9 times with the compounds either orally 0, 2, 5, 18, 24, 42, 48, 66 and 72 hours or intraperitoneally 1, 2, 4, 18 and 28 hours after infection. The survivals were recorded up to 21 days.
Non-treated (controls) mice died at 3 to 5 days after infection.

[2] = tested on: rhinovirus HGP; assay: Inhibition of viral cytopathogenic effect (c.p.e.) of rhinovirus HGP in HeLa cells; assay type: cell-based, human rhinoviruses; details: Enterovirus, HeLa, 48 h, read-out: IC50 against rhinovirus HGP (concentration inhibiting the viral c.p.e. by 50%)
Method: A suspension of HeLa cells (6×10^4) was mixed with rhinovirus HGP (3×10^3 plaque forming units, PFU) and was plated in a microtest plate containing the compounds to be tested serially diluted. The cells were then cultured with Eagle's minimum essential medium containing 2% calf serum, 1% tryptose phosphate broth, 100 μg/ml of streptomycin sulfate and 20 unit/ml of penicillin G. Viral c.p.e. (cytopathogenic effect) was observed by a microscope after 2 days culture at 33° C.
The antiviral activity of the tested compounds is expressed by the concentration inhibiting the viral c.p.e. by 50% when compared to the control culture (IC50).

[3] = in vivo; details: mouse, DDY mice, single dose
Method: ^(1) DDY mice weighing 15-20 g were treated with a single dose of the
compound. Survivors were recorded on day 21.
^(2) Compounds were dissolved in dimethylsulfoxide.
^(3) Compounds were suspended with solution of 0.5% carboxymethyl

[4] = tested on: HeLa cells; assay: Cytotoxic symptoms in HeLa cells in the viral replication test; assay type: cell-based
Method: Effect of 2'-hydroxy-4,4',6'-trimethoxychalcone on the replication of rhinovirus HGP in HeLa cells was tested. Monolayers of HeLa cells (4×10^5) to which 2'-hydroxy-4,4',6'-trimethoxychelcone at various concentrations had been added were infected with rhinovirus HGP (4×10^4 PFU) for 60 minutes. Thereafter, the cells were washed with Eagle's minimum essential medium and further cultured with said medium containing 2% calf serum, 1% tryptose phosphate broth, 100 μg/ml of streptomycin sulfate and 20 units/ml of penicillin G. The total yield of the virus replicated in the culture medium was assayed 2 days after infection.
In the same manner the effect of 4'-ethoxy-2'-hydroxy-4,6'-dimethoxychalcone on the replication of rhinovirus type 21 in HeLa cells was tested.

[5] = ip, i.p., dissolved in dimethylsulfoxide, day 21, read-out: LD50 i.p.
[6] = po, p.o., suspended in 0.5% carboxymethyl cellulose, day 21, read-out: LD50 p.o.
[7] = 20 mg/kg × 9, p.o., control 20%
[8] = 40 mg/kg × 9, p.o., control 20%

SMILES	Survival ([1]; 20 mg/kg × 5, i.p., control 0%)	Survival ([1]; 40 mg/kg × 5, i.p., control 0%)	IC50 [2]	LD50 at 504 h [3, 5]	LD50 at 504 h [3, 6]	Survival [1, 7]	Survival [1, 8]	cytotoxic symptom ([4]; 0.1-1.0 μg/ml, rhinovirus HGP test)	cytotoxic symptom ([4]; 0.03 μg/ml, rhinovirus type 21 test)
CCC(=O)Oc1cc(OC)cc(OC)c1C(=O)/C=C/c1ccc(OC)cc1 [2',4,4'-trimethoxy-6'-(propionyloxy)chalcone]	25%	75%	0.01 µg/mL (≈ 0.027 µM)	> 500 mg/kg	> 5000 mg/kg				
COc1ccc(/C=C/C(=O)c2c(OC)cc(OC)cc2OC(C)=O)cc1 [2'-acetoxy-4,4',6'-trimethoxychalcone]		50%	0.006 µg/mL (≈ 0.0168 µM)	> 1000 mg/kg	> 5000 mg/kg	40%	70%		
COc1cc(O)c(C(=O)C=Cc2cccs2)c(OC)c1 [2'-hydroxy-4',6'-dimethoxy-3-(2-thienyl)-acrylophenone]			0.03 µg/mL (≈ 0.103 µM)	> 1000 mg/kg	> 5000 mg/kg	30%	70%		
COc1ccc(/C=C/C(=O)c2c(O)cc(OC)cc2OC)cc1 [2'-hydroxy-4,4',6'-trimethoxychalcone]			0.01 µg/mL (≈ 0.0318 µM)	> 1000 mg/kg	> 5000 mg/kg	40%	60%	without showing any cytotoxic symptom	
CCCOc1cc(OC)cc(O)c1C(=O)/C=C/c1ccc(OC)cc1 [2'-hydroxy-4,4'-dimethoxy-6'-propoxychalcone]			0.06 µg/mL (≈ 0.175 µM)	> 500 mg/kg	> 1500 mg/kg				
COc1ccc(/C=C/C(=O)c2ccc(OC)cc2O)cc1 [2'-hydroxy-4,4'-dimethoxychalcone]			0.3 to 1 µg/mL (≈ 1.06 to 3.52 µM)	> 1000 mg/kg	> 2500 mg/kg				
COc1ccc(/C=C/C(=O)c2c(O)cc(OC)cc2OC(C)C)cc1 [2'-hydroxy-6'-isopropoxy-4,4'-dimethoxychalcone]			0.1 to 0.2 µg/mL (≈ 0.292 to 0.584 µM)	> 500 mg/kg	> 2700 mg/kg				
CCC(=O)Oc1cc(OC)cc(OC(C)C)c1C(=O)/C=C/c1ccc(OC)cc1 [2'-isopropoxy-4,4'-dimethoxy-6'-(propionyloxy)chalcone]			0.01 to 0.03 µg/mL (≈ 0.0251 to 0.0753 µM)	> 500 mg/kg	> 1000 mg/kg				
COc1cc(O)c(C(=O)/C=C/c2cccc(OC)c2O)c(OC)c1 [2,2'-dihydroxy-3,4',6'-trimethoxychalcone]			0.15 to 0.5 µg/mL (≈ 0.454 to 1.51 µM)	> 500 mg/kg	> 1000 mg/kg				
CCC(=O)Oc1cc(OC)cc(OC)c1C(=O)C=Cc1ccco1 [3-(2-furyl)-2',4'-dimethoxy-6'-(propionyloxy)-acrylophenone]			0.1 to 0.3 µg/mL (≈ 0.303 to 0.908 µM)	> 500 mg/kg	> 1000 mg/kg				
COc1cc(O)c(C(=O)C=Cc2ccco2)c(OC)c1 [3-(2-furyl)-2'-hydroxy-4',6'-dimethoxyacrylophenone]			0.06 to 0.2 µg/mL (≈ 0.219 to 0.729 µM)	> 500 mg/kg	> 1500 mg/kg				
CCOc1cc(O)c(C(=O)/C=C/c2ccc(OC)cc2)c(OC)c1 [4'-ethoxy-2'-hydroxy-4,6'-dimethoxychalcone]			0.002 to 0.006 µg/mL (≈ 0.00609 to 0.0183 µM)	> 1000 mg/kg	> 5000 mg/kg				without showing any cytotoxic symptom
CCOc1cc(O)c(C(=O)C=Cc2ccc(C)o2)c(OC)c1 [4'-ethoxy-2'-hydroxy-6'-methoxy-3-(5-methyl-2-furyl)-acrylophenone]			0.03 µg/mL (≈ 0.0992 µM)	> 500 mg/kg	> 1000 mg/kg				
CCOc1ccc(/C=C/C(=O)c2c(O)cc(OCC)cc2OC)cc1 [4,4'-diethoxy-2'-hydroxy-6'-methoxychalcone]			0.006 to 0.02 µg/mL (≈ 0.0175 to 0.0584 µM)	> 500 mg/kg	> 1000 mg/kg				
CCCOc1cc(OC)cc(OC(=O)CC)c1C(=O)/C=C/c1ccc(OC)cc1 [4,4'-dimethoxy-2'-(propionyloxy)-6'-propoxychalcone]			0.03 to 0.1 µg/mL (≈ 0.0753 to 0.251 µM)	> 500 mg/kg	> 1000 mg/kg				
C=CCOc1ccc(/C=C/C(=O)c2c(OC)cc(OC)cc2OC(=O)CC)cc1 [4-(allyloxy)-2',4'-dimethoxy-6'-(propionyloxy)-chalcone]			0.03 to 0.1 µg/mL (≈ 0.0757 to 0.252 µM)	> 500 mg/kg	> 1000 mg/kg				
C=CCOc1ccc(/C=C/C(=O)c2c(O)cc(OC)cc2OC)cc1 [4-(allyloxy)-2'-hydroxy-4',6'-dimethoxychalcone]			0.03 to 0.1 µg/mL (≈ 0.0881 to 0.294 µM)	> 500 mg/kg	> 1000 mg/kg				
COc1cc(O)c(C(=O)/C=C/c2ccc(OCc3ccccc3)c(OC)c2)c(OC)c1 [4-(benzyloxy)-2'-hydroxy-3,4',6'-trimethoxychalcone]			1 µg/mL (≈ 2.38 µM)	> 500 mg/kg	> 1500 mg/kg				
CCC(=O)Oc1cc(OC)cc(OC)c1C(=O)/C=C/c1ccc(Cl)cc1 [4-chloro-2',4'-dimethoxy-6'-(propionyloxy)-chalcone]			0.1 to 0.3 µg/mL (≈ 0.267 to 0.8 µM)	> 1000 mg/kg	> 5000 mg/kg				
COc1cc(O)c(C(=O)/C=C/c2ccc(Cl)cc2)c(OC)c1 [4-chloro-2'-hydroxy-4',6'-dimethoxychalcone]			0.02 to 0.06 µg/mL (≈ 0.0627 to 0.188 µM)	> 1000 mg/kg	> 5000 mg/kg				
COc1cc(O)c(C(=O)/C=C/c2ccc(C#N)cc2)c(OC)c1 [4-cyano-2'-hydroxy-4',6'-dimethoxychalcone]			0.3 µg/mL (≈ 0.97 µM)	> 500 mg/kg	> 1000 mg/kg				
CCOc1ccc(/C=C/C(=O)c2c(OC)cc(OC)cc2OC(=O)CC)cc1 [4-ethoxy-2',4'-dimethoxy-6'-(propionyloxy)-chalcone]			0.03 to 0.1 µg/mL (≈ 0.078 to 0.26 µM)	> 1000 mg/kg	> 5000 mg/kg				
CCOc1ccc(/C=C/C(=O)c2c(O)cc(OC)cc2OC)cc1 [4-ethoxy-2'-hydroxy-4',6'-dimethoxychalcone]			0.02 to 0.05 µg/mL (≈ 0.0609 to 0.152 µM)	> 1000 mg/kg	> 5000 mg/kg				
